The results in this text go back to article PMC4744035, “In Vivo, In Vitro, and In Silico Characterization of Peptoids as Antimicrobial Agents” (PLoS ONE, 2016).

Values after ≈ are worked out from the molar mass of the structure shown. Square brackets hold non-standard residues; d marks the D form. Peptide text beside a SMILES is read from it. Nspe = C[C@H](NCC(=O)O)c1ccccc1; Nlys = NCCCCNCC(=O)O

The subject of data set [1] is erythrocytes. Description: Hemolytic activity (HD10/HD50). Type of data set: cell-based. The following applies: erythrocytes. From the text: Table 1 Characteristics of antimicrobial peptoids, screened for activity against B. subtilis and E. coli bacterial strains. | column: HD10 / HD50
In data set [2] the test system is 20 bacterial strains (13 Gram-negative, 7 Gram-positive). As for the experimental part: The MICs of test agents were measured using a modified broth micro-dilution method in Difco Mueller Hinton medium, on a panel of bacterial pathogens that were both susceptible and resistant to common antibiotics (S1 File). Briefly, serial dilutions were performed in 0.01% acetic acid containing 0.2% bovine serum albumin at 10-fold the desired final concentration. Ten μL of the 10-fold concentrated test reagents were added to each well of a 96-well polypropylene microtitre plate containing 90 μL of Mueller Hinton media per well. Bacteria were added to the plate from an overnight culture at a final concentration of 2–7 x 10^5 CFU/mL and incubated overnight at 37°C. The MIC is defined as the concentration at which no growth was observed.
Screening of peptoid antimicrobial activity against a panel of multidrug resistant superbugs was done according to the protocol described in the manuscript. The bacterial strains used in this panel included; P. aeruginosa PAO1 strain H103 [1], P. maltophilia ATCC#13637, S. aureus ATCC#25923 [1], E. faecalis ATCC#29212 [2], and E. cloacae 218R, constitutively expressing Class C chromosomal β-lactamase, were from the Hancock lab strains collection. An MRSA clinical isolate was kindly provided by Anthony Chow (Vancouver General Hospital, Vancouver, Canada). Two Klebsiella pneumoniae and two E. coli clinical isolates expressing extended spectrum β-lactamases (ESBL) were kindly provided by George Zhanel (Health Sciences Centre, Winnipeg, Canada). Vancomycin-resistant clinical isolates of Enterococcus faecalis and E. faecium were obtained from Ana M. Paccagnella (BC Centre for Disease Control, Vancouver, Canada). Three clinical isolates (#9, #198 and #213) of multi-drug resistant P. aeruginosa, were kindly provided by Carlos Kiffer (University of São Paulo, Brazil). […] Three P. aeruginosa clinical isolates of the Liverpool epidemic strain (LES) (H1027, H1030 and LES400) were all kindly provided by Craig Winstanley (University of Liverpool, UK). […] All tested bacterial strains were categorized as biohazard level 2 pathogens.

The test system of data set [3] is P. aeruginosa 9 (MDR). Description: microbe, parasite or virus in culture. The following applies: P. aeruginosa 9 (MDR). The gist of the method:
(§1)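 Minimum inhibitory concentrations came from overnight 37°C cultures in Mueller Hinton medium seeded at 2–7 x 10^5 CFU/mL.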

The test system of data set [4] is E. faecium T62764 (VRE). In words: microbe, parasite or virus in culture. The following applies: E. faecium T62764 (VRE). The gist of the method: as §1
For data set [5], the system named is K. pneumonia 63575 (ESBL). Description: microbe, parasite or virus in culture. The following applies: K. pneumonia 63575 (ESBL). The gist of the method:
as §1

Data set [6] relates to E. faecalis ATCC29212. Description: microbe, parasite or virus in culture. The following applies: E. faecalis ATCC29212. The gist of the method:
as §1

Data set [7] deals with P. aeruginosa H1027 (MDR). In words: microbe, parasite or virus in culture. The following applies: P. aeruginosa H1027 (MDR). The gist of the method:
as §1

Data set [8] has as its system P. aeruginosa 213 (MDR). Description: microbe, parasite or virus in culture. The following applies: P. aeruginosa 213 (MDR). The gist of the method: as §1
The test system of data set [9] is K. pneumonia 61962 (ESBL). In words: microbe, parasite or virus in culture. The following applies: K. pneumonia 61962 (ESBL). The gist of the method:
as §1

Data set [10] relates to P. aeruginosa H1030 (MDR). Description: microbe, parasite or virus in culture. The following applies: P. aeruginosa H1030 (MDR). The gist of the method: as §1
The subject of data set [11] is E. coli ATCC 35218. The data set is classed as cell-based. The gist of the method:
(§2)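 MICs determined by 2:1 serial broth microdilution in cation-adjusted Mueller-Hinton broth per CLSI M7-A6, using inoculum at 1 x 10^6 CFU/mL mixed 1:1 with peptoid solution. Three independent replicates, each with two parallel trials.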

The subject of data set [12] is B. subtilis ATCC 6633. The data set is classed as cell-based. The gist of the method: as §2
Data set [13] is described as follows: Acute toxicity screen in healthy mice. Type of data set: in vivo. The following applies: three healthy mice, 4 mg/kg (100 μg per mouse) intraperitoneally. As to the method:
This dosage was selected to be on the conservative end of the dosage range typically evaluated for AMPs (1 mg/kg to 24 mg/kg) in other animal studies. To screen for acute signs of toxicity, three healthy mice were injected intraperitoneally with 4 mg/kg (100 μg per mouse) of peptoid 1, and a second control group with an equivalent volume of saline.

Data set [14] concerns S. aureus (ATCC 25923). Description: Murine model of invasive S. aureus infection. Type of data set: in vivo, CD1 mice. The following applies: mice, 4 mg/kg. As to the method:
Animal experiments were performed in accordance with University of British Columbia Care Ethics Committee approval and guidelines as per animal care certificate #A04-0020. Female CD1 mice (6–8 week old) were weighed, marked, and injected with 200 μL of S. aureus (ATCC 25923) ~10^9 CFU/mouse suspended in Mueller Hinton broth containing 5% mucin and injected intraperitoneally. Four hours after infection, animals were treated with 4 mg/kg or 100μg per mouse of peptoid 1 (experimental group; n = 10) or an equivalent volume of saline (control group; n = 10). All animals were monitored two hours after each injection step, they were also evaluated at the end of the working day and the next morning a couple of hours prior to the experimental endpoint. Humane endpoints criteria; immobilization and shaking, were put down but none of the test subjects were evaluated to reach these endpoints prior to the experimental endpoint. The mice were euthanized 24 hours post-infection using CO2. The peritoneal cavity was exposed and washed with 5 mL PBS. […] Plates were incubated overnight at 37°C and colonies were counted the following day. […] The statistical differences between peptide treated and naïve mice were assessed using PRISM® (GraphPad Software Inc., San Diego, CA) using contingency tables Chi-square test, with a confidence interval of 99%. […]

Turning to `C[C@@H](c1ccccc1)N(CC(N)=O)C(=O)CN(C(=O)CN(CCCCN)C(=O)CN(C(=O)CN(C(=O)CN(CCCCN)C(=O)CN(C(=O)CN(C(=O)CN(CCCCN)C(=O)CN(C(=O)CN(C(=O)CNCCCCN)[C@@H](C)c1ccccc1)[C@@H](C)c1ccccc1)[C@@H](C)c1ccccc1)[C@@H](C)c1ccccc1)[C@@H](C)c1ccccc1)[C@@H](C)c1ccccc1)[C@@H](C)c1ccccc1` [Peptoid 1, H-(NLys-Nspe-Nspe)4-NH2] (H-[Nlys][Nspe][Nspe][Nlys][Nspe][Nspe][Nlys][Nspe][Nspe][Nlys][Nspe][Nspe]-NH2), the “HD10 (hemolytic activity)” value in data set [1] (first value of HD10 / HD50 cell) is 21. In data set [1] (second value of HD10 / HD50 cell), the “HD50 (hemolytic activity)” value came out at 100. Besides, in [2] (7 Gram-positive strains), the “median MIC against all Gram-positive strains tested” value was determined as 2 µg/mL. In data set [2] (out of the 20 pathogens tested), the “number of pathogens with MIC ≤ 8 μg/mL” value is given as 19. In addition, the MIC in [3] was 16 µg/mL (≈ 8.79 µM); in data set [4] it was 2 µg/mL (≈ 1.1 µM); in [5], 4 µg/mL (≈ 2.2 µM); in data set [6], 2 µg/mL (≈ 1.1 µM); in [7] it was 2 µg/mL (≈ 1.1 µM); in [8], 4 µg/mL (≈ 2.2 µM). The MIC in data set [9] and in [10] was 4 µg/mL (≈ 2.2 µM) in each case. For the same compound, in data set [11], the “MIC E. coli” value was 6.3 µM (≈ 11.5 µg/mL). In data set [12], the “MIC B. subtilis” value was determined as 1.6 µM (≈ 2.91 µg/mL). The “acute signs of toxicity, 24 hours post-injection observation” value in data set [13] is “all mice appeared to be healthy and exhibited normal activity and no weight loss or abject morbidity”. In addition, the toxicity entry in data set [14] was “no medium-term toxicity”.
